Measured values from publication PMC8151276, “An Integrated Approach toward NanoBRET Tracers for Analysis of GPCR Ligand Engagement” (Molecules, 2021).

Target: T1, MCHR2 (Homo sapiens, UniProt Q969V1)
T1 construct: purchased Promega (in-house HiBiT-GPCR construct library, NanoBRET)
Test: NanoBRET screen HiBiT-MCHR2 in HEK293
Assay type: binding
Experimental: Each tracer candidate was screened across the entire library of HiBiT-GPCR constructs using NanoBRET as the detection modality. As depicted in Figure 4A, the specificity of interactions was evaluated through decrease in BRET due to competitive displacement of a bound tracer by excess parental compound. Each tracer was analyzed for binding to each HiBiT-GPCR fusion in the absence and in the presence of competing parental compound. Briefly, HEK293 cells were transfected with HiBiT-GPCR constructs diluted into promoterless DNA to reduce expression and maximize translocation to the cell surface. Each tracer candidate was then screened at concentrations of 1 μM and 0.1 μM across cells expressing these fusions. Cells were treated for 1.5 h with tracer either alone or in the presence of 20 μM competing parental compound (i.e., control). BRET was measured upon addition of purified LgBiT and subsequent complementation with HiBiT genetically fused to a GPCR. The specificity of interactions was assessed through a decrease in BRET signal due to competitive displacement of the bound tracer. To further gauge the robustness of these interactions, the fold response over the control (i.e., BRETtracer/BRETcontrol) was calculated. We chose a 1.5-fold response, which translates to ≥7-fold signal over noise as the minimal threshold required to score an interaction as positive.
HiBiT-GPCR DNA constructs were diluted in 10 mM Tris pH 8 to a final concentration of 0.01 μg/μL, arrayed in 96-well plates and stored at −20 °C. For transfection, HEK293 cells were suspended in Opti-MEM (without phenol red) supplemented with 2% fetal bovine serum (Seradigm) and 100 units/mL penicillin–streptomycin (Gibco) at a final concentration of 220,000 cells/mL and dispensed into white 96-well plates at 90 μL/well. Subsequent transfections and screens were carried using an Agilent Bravo Automated Liquid Handling Platform. First, the 96-well HiBiT DNA arrays were diluted 25-fold in Opti-MEM (without serum or phenol red) to a final concentration of 0.0004 μg/μL and 20 μL of the diluted DNAs were transferred into new 96-well plates. Next, promoterless carrier DNA (1 μg/μL) was diluted 25-fold (0.04 μg/μL) and then dispensed into the diluted arrays at 20 μL/well. Following brief mixing, Viafect transfection reagent (Promega) diluted 16-fold into Opti-MEM was dispensed into the plates at 40 μL/well. After mixing by pipetting, plates were incubated for 10 min on the pipetting station deck. The DNA-transfection reagent complexes were then added to plates containing cells. To facilitate the screen, 10 μL of DNA-transfection reagent complexes were added in duplicates to the top 4 and bottom 4 rows, resulting in two identical 48-well arrays per plate. Plates with transfected cells were incubated for 18–20 h at 37 °C/5% CO2. A screen of each tracer across the entire library using two different concentrations requires duplicate plates of transfected cells. Depending on the number of tracers being screened, transfections can be scaled up using the same ratios. The next day, for each tracer, four 20× screening solutions in tracer dilution buffer (Promega) were prepared: two duplicates at final concentration of 20 μM and two duplicates at a final concentration of 2 μM. […] The four resulting solutions were diluted 4-fold in Opti-MEM without serum or phenol red to generate 5× solutions (5 µM and 0.5 µM tracer +/− 100 μM competing compound). To screen the library, a BioTek MultiFlo FX liquid dispenser was used to dispense 22.5 µL of tracer solution to the top 4 rows and 22.5 µL tracer + competing compound solution to the 4 bottom rows. Plates were briefly mixed on an orbital shaker and incubated for 1.5 h at room temperature. […] Plates were briefly mixed on an orbital shaker and incubated for 15 min to allow complementation.

T1 sequence (Q969V1 whole entry): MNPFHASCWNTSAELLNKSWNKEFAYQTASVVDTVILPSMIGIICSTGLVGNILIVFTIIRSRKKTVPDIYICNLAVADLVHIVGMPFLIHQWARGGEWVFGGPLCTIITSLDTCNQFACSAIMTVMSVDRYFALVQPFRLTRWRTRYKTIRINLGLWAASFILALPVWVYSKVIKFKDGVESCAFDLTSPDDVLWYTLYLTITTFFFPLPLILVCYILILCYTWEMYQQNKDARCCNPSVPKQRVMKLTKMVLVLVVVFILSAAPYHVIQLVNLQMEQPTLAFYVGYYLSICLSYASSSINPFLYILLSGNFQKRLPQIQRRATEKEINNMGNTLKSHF

Compound	NanoBRET Fold Response (MCHR2, tracer 0.1μM)	NanoBRET Fold Response (MCHR2, tracer 1μM)	further results
O=C(CCc1ccc2n1[B-](F)(F)[N+]1=C(c3ccc[nH]3)C=CC1=C2)NCc1ccc(C(=O)NCCOCCC(=O)N[C@@H]2CC[C@@]3(O)[C@H]4Cc5ccc(O)c6c5[C@@]3(CCN4CC3CC3)[C@H]2O6)cc1 [Naltrexone-3-NB590]	1.10	1.01	–
CCCn1c(=O)c2[nH]c(-c3ccc(OCC(=O)NCCNC(=O)CCOCCNC(=O)c4ccc(CNC(=O)CCc5ccc6n5[B-](F)(F)[N+]5=C(c7ccc[nH]7)C=CC5=C6)cc4)cc3)nc2n(CCC)c1=O [XAC-3-NB590]	0.96	0.97	–
CC(C)N(CC[C@H](c1ccccc1)c1cc(CCNC(=O)c2ccc(CNC(=O)CCc3ccc4n3[B-](F)(F)[N+]3=C(c5ccc[nH]5)C=CC3=C4)cc2)ccc1O)C(C)C [Tolterodine-BZ-NB590]	0.93	1.02	–
COc1ccc2[nH]c(-c3ccc(CNC(=O)CCOCCOCCOCCOCCNC(=O)CCc4ccc5n4[B-](F)(F)[N+]4=C(c6ccc[nH]6)C=CC4=C5)cc3)c(CCNC(C)=O)c2n1 [AzomelatoninICO9-2-NB590]	–	–	NanoBRET Fold Response (0.1μM tracer): 1.29; NanoBRET Fold Response (1μM tracer): 1.43
CN1CCN(C2=Nc3cc(Cl)ccc3N(CC(=O)NCCOCCOCCOCCOCCNC(=O)CCc3ccc4n3[B-](F)(F)[N+]3=C(c5ccc[nH]5)C=CC3=C4)c3ccccc32)CC1 [Clozapine-c-2-NB590]	–	–	NanoBRET Fold Response (MCHR2, 0.1μM tracer): 1.06; NanoBRET Fold Response (MCHR2, 1μM tracer): 1.01
COc1ccccc1N1CCN(CCCCN2C(=O)c3ccc(CNC(=O)CCOCCNC(=O)c4ccc(CNC(=O)CCc5ccc6n5[B-](F)(F)[N+]5=C(c7ccc[nH]7)C=CC5=C6)cc4)cc3C2=O)CC1 [NAN-190-3-NB590]	1.09	0.72	–
Cc1nc2n(c(=O)c1CCN1CCC(c3noc4cc(F)ccc34)CC1)CCCC2OC(=O)NCCOCCOCCOCCOCCNC(=O)CCc1ccc2n1[B-](F)(F)[N+]1=C(c3ccc[nH]3)C=CC1=C2 (stereo not shown) [Risperidone-2-NB590]	0.96	0.97	–
O=C(CCOCCOCCOCCOCCNC(=O)CCc1ccc2n1[B-](F)(F)[N+]1=C(c3ccc[nH]3)C=CC1=C2)NCCCN1CCN(C2=Nc3ccccc3Oc3ccc(Cl)cc32)CC1 [Loxapine-a-2-NB590]	1.02	1.12	–
COc1ccccc1N1CCN(CCCCN2C(=O)c3ccc(CNC(=O)CCOCCOCCOCCOCCNC(=O)CCc4ccc5n4[B-](F)(F)[N+]4=C(c6ccc[nH]6)C=CC4=C5)cc3C2=O)CC1 [NAN-190-2-NB590]	0.99	0.94	–
CC(C)N(CC[C@H](c1ccccc1)c1cc(CCNC(=O)CCOCCOCCOCCOCCNC(=O)CCc2ccc3n2[B-](F)(F)[N+]2=C(c4ccc[nH]4)C=CC2=C3)ccc1O)C(C)C [Tolterodine-2-NB590]	1.59	1.08	–
N#CN=C(NCCCOc1cccc(CN2CCCCC2)c1)NCCNC(=O)CCOCCOCCOCCOCCNC(=O)CCc1ccc2n1[B-](F)(F)[N+]1=C(c3ccc[nH]3)C=CC1=C2 [Aminopotentidine-2-NB590]	0.97	1.03	–
CCOC(=O)c1cc(C#N)c(N2CCC(C(=O)NS(=O)(=O)Cc3ccccc3/C=C/C(=O)NCCNC(=O)CCc3ccc4n3[B-](F)(F)[N+]3=C(c5ccc[nH]5)C=CC3=C4)CC2)nc1C [AZD1283-1-NB590]	–	–	NanoBRET Fold Response (MCHR2, 0.1μM): 1.04; NanoBRET Fold Response (MCHR2, 1μM): 1.06
CN(C)CCC=C1c2ccccc2CCc2ccc(C(=O)NCCNC(=O)CCOCCOCCOCCOCCNC(=O)CCc3ccc4n3[B-](F)(F)[N+]3=C(c5ccc[nH]5)C=CC3=C4)cc21 [Amitriptyline-b-2-NB590]	–	–	NanoBRET Fold Response (tracer at 0.1μM, listed as amitriptyline-b-2-NB590): 0.85; NanoBRET Fold Response (tracer at 1μM, listed as amitriptyline-b-2-NB590): 0.90
CN(C)CCC=C1c2ccccc2CCc2ccc(C(=O)NCCNC(=O)CCOCCOCCOCCOCCNC(=O)CCc3ccc4n3[B-](F)(F)[N+]3=C(c5ccc[nH]5)C=CC3=C4)cc21 [Amitriptyline-a-2-NB590]	–	–	NanoBRET Fold Response (tracer at 0.1μM): 0.97; NanoBRET Fold Response (tracer at 1μM): 1.01
O=C(CCc1ccc2n1[B-](F)(F)[N+]1=C(c3ccc[nH]3)C=CC1=C2)NCCOCCOCCNC(=O)OCCOCCN1CCN(C2=Nc3ccccc3Sc3ccccc32)CC1 [Quetiapine-a-2-NB590]	1.03	0.74	–
Cc1cc2c(s1)Nc1ccccc1N=C2N1CCN(CCCNC(=O)CCOCCOCCOCCOCCNC(=O)CCc2ccc3n2[B-](F)(F)[N+]2=C(c4ccc[nH]4)C=CC2=C3)CC1 [Olanzapine-a-2-NB590]	0.98	1.01	–
CN1CCN(C2=Nc3cc(Cl)ccc3Nc3ccc(CNC(=O)CCOCCOCCOCCOCCNC(=O)CCc4ccc5n4[B-](F)(F)[N+]4=C(c6ccc[nH]6)C=CC4=C5)cc32)CC1 [Clozapine-b-2-NB590]	–	–	NanoBRET Fold Response (MCHR2, 0.1μM tracer): 1.00; NanoBRET Fold Response (MCHR2, 1μM tracer): 0.97
COc1ccc2c(n1)c(CCNC(C)=O)cn2CCNC(=O)CCc1ccc2n1[B-](F)(F)[N+]1=C(c3ccc[nH]3)C=CC1=C2 [Azamelatonin-1-NB590]	–	–	NanoBRET Fold Response (0.1μM tracer): 1.45; NanoBRET Fold Response (1μM tracer): 0.86
O=C(CCc1ccc2n1[B-](F)(F)[N+]1=C(c3ccc[nH]3)C=CC1=C2)NCc1ccc(C(=O)NCCOCCOCCNCC(O)COc2cccc3ccccc23)cc1 (stereo not shown) [Propranolol-3-NB590]	–	–	NanoBRET Fold Response (MCHR2, 0.1μM): 0.91; NanoBRET Fold Response (MCHR2, 1μM): 1.02
O=C(CCOCCOCCOCCOCCNC(=O)CCc1ccc2n1[B-](F)(F)[N+]1=C(c3ccc[nH]3)C=CC1=C2)NCCCN1CCN(C2=Nc3cc(Cl)ccc3Nc3ccccc32)CC1 [Clozapine-a-2-NB590]	–	–	NanoBRET Fold Response (MCHR2, 0.1μM tracer): 0.98; NanoBRET Fold Response (MCHR2, 1μM tracer): 1.37
